The results in this text go back to PubChem BioAssay (NCI).

Test systems include COLO 205 colon; SNB-19 CNS; MOLT-4 leukemia; SF-539 CNS; A498 renal; NCI/ADR-RES ovarian; A549 NSCLC; PC-3 prostate; OVCAR-5 ovarian; EKVX NSCLC.
Assay in all cases: inhibition of tumour cell growth, NCI panel, 48 h

Molecules are shown by their SMILES.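 Protocol summary: plate cells (96-well), add compound at 5 concentrations, incubate 48 h, interpolate endpoints linearly. Here, GI50 denotes the concentration required for 50% inhibition of growth. TGI marks complete inhibition of growth.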 Some results are limits rather than exact numbers.

Regarding `NC(=S)N=Nc1c(O)c2ccccc2c2ccccc12`, the GI50 is 22.8 µM with COLO 205 colon; 3.12 µM in the experiment on SNB-19 CNS; 33.7 µM with MOLT-4 leukemia; 2480 nM with SF-539 CNS; 14.9 µM in the experiment with A498 renal; 4.3 µM with NCI/ADR-RES ovarian. The figures for the GI50 in the experiment with A549 NSCLC, in the experiment on PC-3 prostate and in the experiment on OVCAR-5 ovarian were 3.44 µM, 9.05 µM and 2.45 µM, respectively. The TGI in the experiment on COLO 205 colon is 73.6 µM; in the experiment on SNB-19 CNS it was 12.6 µM; in the experiment with MOLT-4 leukemia, greater than 73.5 µM; in the experiment with SF-539 CNS, 9.16 µM; in the experiment with A498 renal, 45.7 µM; with NCI/ADR-RES ovarian, 27 µM. Also, the TGI in the experiment with A549 NSCLC came to 12.1 µM; in the experiment with PC-3 prostate, 66.6 µM; in the experiment on OVCAR-5 ovarian, 6.94 µM.

For the compound `COc1ccc(/C=C\c2cc(OC)c(OC)c(OC)c2)cc1OCC(=O)Nc1ccc2nc(C)sc2c1`, the GI50 with COLO 205 colon is 4.4 µM; in the experiment with SNB-19 CNS, 3.89 µM; with MOLT-4 leukemia it was 2.11 µM; in the experiment on EKVX NSCLC, 4.05 µM; in the experiment on SF-539 CNS it was 2560 nM; in the experiment on A498 renal it was 4.18 µM. The GI50 with NCI/ADR-RES ovarian is 2.36 µM; with PC-3 prostate, 2.8 µM; in the experiment on OVCAR-5 ovarian, 6.69 µM. The TGI in the experiment on COLO 205 colon is 16.2 µM; in the experiment on SNB-19 CNS it was greater than 100 µM; in the experiment on MOLT-4 leukemia it was 5.68 µM; with EKVX NSCLC it was greater than 100 µM; in the experiment on SF-539 CNS, 14.6 µM; with A498 renal it was greater than 100 µM. Also, the TGI in the experiment on NCI/ADR-RES ovarian is 8 µM; with PC-3 prostate, 8.01 µM; in the experiment on OVCAR-5 ovarian, greater than 100 µM.

As to `O=c1cc(-c2ccccc2)oc2cc(OC/C(=N/O)c3ccc(F)cc3)ccc12`, the GI50 is 26.1 µM in the experiment with COLO 205 colon; greater than 50 µM in the experiment on SNB-19 CNS; greater than 50 µM with MOLT-4 leukemia; 17.2 µM with EKVX NSCLC; 11500 nM in the experiment with SF-539 CNS; 21 µM in the experiment on NCI/ADR-RES ovarian. The figures for the GI50 with A549 NSCLC, in the experiment with PC-3 prostate and in the experiment with OVCAR-5 ovarian were 20.1 µM, 11.9 µM and greater than 50 µM, respectively. The TGI is greater than 50 µM in the experiment with COLO 205 colon; greater than 50 µM in the experiment with SNB-19 CNS; greater than 50 µM in the experiment on MOLT-4 leukemia; greater than 50 µM with EKVX NSCLC; 26 µM with SF-539 CNS; greater than 50 µM in the experiment on NCI/ADR-RES ovarian. The TGI is greater than 50 µM in the experiment on A549 NSCLC, 40.1 µM in the experiment on PC-3 prostate and greater than 50 µM in the experiment with OVCAR-5 ovarian.

As to `COc1cc2c(=O)n(CCN(C)C)c3c4cc5c(cc4ccc3c2cc1OC)OCO5`, the GI50 in the experiment with COLO 205 colon is 0.169 µM; in the experiment with SNB-19 CNS it was 0.198 µM; in the experiment on MOLT-4 leukemia, 0.127 µM; in the experiment on EKVX NSCLC, 0.694 µM; with SF-539 CNS it was 181 nM; in the experiment with A498 renal it was 0.0417 µM. For the same compound, the GI50 is 0.256 µM with NCI/ADR-RES ovarian, 0.338 µM in the experiment on PC-3 prostate and 0.519 µM in the experiment on OVCAR-5 ovarian. Further, the TGI in the experiment on COLO 205 colon is 0.922 µM; in the experiment with SNB-19 CNS, 8.41 µM; with MOLT-4 leukemia it was 0.648 µM; with EKVX NSCLC, 4.7 µM; with SF-539 CNS it was 0.863 µM; in the experiment with A498 renal it was 0.603 µM. Moreover, the figures for the TGI in the experiment on NCI/ADR-RES ovarian, in the experiment with PC-3 prostate and in the experiment with OVCAR-5 ovarian were greater than 50 µM, 6.16 µM and 3.8 µM, respectively.

Consider `COc1cc(NCCN=C(N)NC(N)=NC(C)C)c2ncccc2c1`, for which the GI50 was 1.7 µM in the experiment with COLO 205 colon; 9.18 µM in the experiment with SNB-19 CNS; 25 µM in the experiment on MOLT-4 leukemia; 4060 nM with SF-539 CNS; greater than 58.1 µM in the experiment with A498 renal; greater than 100 µM in the experiment on NCI/ADR-RES ovarian. In addition, the GI50 in the experiment with A549 NSCLC was 37.3 µM; with PC-3 prostate, 8.96 µM; with OVCAR-5 ovarian, 11.2 µM. The TGI was 7.95 µM in the experiment on COLO 205 colon; greater than 100 µM in the experiment with SNB-19 CNS; greater than 100 µM in the experiment on MOLT-4 leukemia; 20 µM in the experiment on SF-539 CNS; greater than 100 µM with A498 renal; greater than 100 µM in the experiment on NCI/ADR-RES ovarian. Also, the values for the TGI with A549 NSCLC, in the experiment on PC-3 prostate and in the experiment on OVCAR-5 ovarian were greater than 100 µM, greater than 100 µM and 39.3 µM, respectively.

Turning to `CC1=C[C@H]2C[C@H](C)[C@H]3CC[C@H](C)[C@]4(C1)C(=O)C(O)=C(C)C(=O)[C@@]324`, the GI50 with COLO 205 colon was 19 µM; with SNB-19 CNS, 30.2 µM; with MOLT-4 leukemia, 16.3 µM; in the experiment on EKVX NSCLC it was 42.9 µM; in the experiment with SF-539 CNS it was 52600 nM; in the experiment on NCI/ADR-RES ovarian, 17.2 µM. Also, the GI50 with A549 NSCLC is 28.5 µM; in the experiment with PC-3 prostate, 18.4 µM; in the experiment on OVCAR-5 ovarian, 20.4 µM. For the same compound, the TGI with COLO 205 colon is 48.9 µM; in the experiment with SNB-19 CNS it was greater than 100 µM; in the experiment on MOLT-4 leukemia it was 37.4 µM; in the experiment on EKVX NSCLC, greater than 100 µM; with SF-539 CNS, greater than 100 µM; in the experiment on NCI/ADR-RES ovarian, 48.4 µM. Moreover, the TGI was greater than 100 µM with A549 NSCLC, 56 µM with PC-3 prostate and 55.4 µM in the experiment on OVCAR-5 ovarian.

Regarding `O=C(C[P+](c1ccccc1)(c1ccccc1)c1ccccc1)C[P+](c1ccccc1)(c1ccccc1)c1ccccc1`, the GI50 in the experiment with COLO 205 colon is 0.398 µM; in the experiment on SNB-19 CNS it was 1.31 µM; with MOLT-4 leukemia, 0.292 µM; in the experiment on SF-539 CNS it was 286 nM; with A498 renal it was 0.223 µM; with NCI/ADR-RES ovarian, 0.383 µM. Moreover, the GI50 in the experiment on A549 NSCLC was 0.81 µM; with PC-3 prostate it was 0.938 µM; in the experiment on OVCAR-5 ovarian it was 0.263 µM. Also, the TGI in the experiment with COLO 205 colon turned out to be 1.51 µM; with SNB-19 CNS, 2.78 µM; in the experiment with MOLT-4 leukemia it was 4.08 µM; with SF-539 CNS, 1.13 µM; with A498 renal it was 1.02 µM; with NCI/ADR-RES ovarian, 11 µM. Further, the TGI in the experiment on A549 NSCLC was found to be 3.04 µM; in the experiment on PC-3 prostate, 2.51 µM; with OVCAR-5 ovarian, 0.832 µM.

In the case of `CC12CCC3c4cc(Br)c(O)c(Br)c4CCC3C1CCC2O` (stereo not given), the TGI with COLO 205 colon turned out to be 70.1 µM; in the experiment with MOLT-4 leukemia, 42.2 µM; in the experiment with EKVX NSCLC it was 45.4 µM; in the experiment on SF-539 CNS it was 36.3 µM; in the experiment with A498 renal it was 36.3 µM; with NCI/ADR-RES ovarian, 62.5 µM. The values for the TGI with A549 NSCLC, in the experiment on PC-3 prostate and in the experiment with OVCAR-5 ovarian were 40.9 µM, greater than 100 µM and greater than 100 µM, respectively.
